# Entries after “also recorded” stand apart in the source; their conditions may differ.
# Columns and labels:
# TW-1 cell line [1] = test: In vitro drug screening test (cell survival rate); format: cell-based, rat
# Protocol: (§1) The purpose of the method of drug screening is to evaluate the inhibitory ability of the active ingredients of currently used anticancer drugs against the growth, recurrence, or metastasis of TW-1 cell line, and HTC cell line was used as control group. The active ingredient of anticancer drug be used in the embodiment was Sorafenib.
# TW-1 cell line and HTC cell line were seeded in 96-well plate with 2×10^5 cells/well, 1 μM, 5 μM, 10 μM, 20 μM and 40 μM of Sorafenib were respectfully used for treating cells once the cells were attached, and the negative control group cells were treated with PBS.
# TW-1 cell line [2] = test: In vivo drug screening test, TW-1 cell line transplanted subcutaneously; parameters: species or system BALB/cAnN.Cg-Foxnl^nu/CrlNarl nude mice; conditions: nude mice
# Protocol: as §1, with “BALB/cAnN.Cg-Foxnl^nu/CrlNarl nude mice were” for “HTC cell line was”, “the animal model.” for “control group.”
# BALB/cAnN.Cg-Foxnl^nu/CrlNarl nude mice were grouped into 3 groups, control group (Control), low-dose Sorafenib group (10 mg/kg body weight (BD)) and high-dose Sorafenib group (50 mg/kg body weight (BD)), 5 mice in each group.
# Transplanting of TW-1 cell line into BALB/cAnN.Cg-Foxnl^nu/CrlNarl nude mice were processed with 5×10^5 cells by subcutaneous injection for evaluating the effect of anticancer drugs against TW-1 cell line.
# After the tumor grew to appropriate size (100-150 mm^3) that was able to be measured at the TW-1 cell line transplanted position, the mice were treated with Sorafenib (Sorafenib groups) or PBS (control group) once per three days, and tumor generation of the mice were measured for 30 days the tumor volume of mice were recorded once per five days.
smiles,measurement,setting,value
CNC(=O)c1cc(Oc2ccc(NC(=O)Nc3ccc(Cl)c(C(F)(F)F)c3)cc2)ccn1 [Sorafenib],cell growth,"TW-1 cell line [1]; 40 μM Sorafenib, 24 and 48 hours post-treatment","the cell growth was decreased; also recorded: had the ability to inhibit growth of TW-1 cell line, but TW-1 cell line was not killed"
same,"sensitivity to Sorafenib (cell survival rate), TW-1 cell line compared with HTC cell line","TW-1 cell line [1]; concentration lower than 10 μM, after treatment for 24 hours, HTC cell line as control",higher sensitivity
same,drug tolerance of TW-1 cell line compared with HTC cell lines,"TW-1 cell line [1]; high concentration (up to 40 μM), more obvious after 48 hours post-treatment",much higher drug tolerance
same,tumor volume of high-dose Sorafenib group vs low-dose Sorafenib group,"TW-1 cell line [2]; 50 mg/kg vs 10 mg/kg body weight, once per three days, 30 days",significantly higher than that in low-dose Sorafenib group mice
same,tumor volume of Sorafenib treating groups vs control group,"TW-1 cell line [2]; 10 and 50 mg/kg body weight, once per three days, measured for 30 days",significantly higher than that in control group
same,metastasis of TW-1 cell line to lung,"TW-1 cell line [2]; high-dose Sorafenib (50 mg/kg body weight), drug dependent",high-dose Sorafenib induced high metastasis
